{
  "source": "ChEMBL document CHEMBL5325478",
  "about": "“The unique activity of saponin: Induction of cytotoxicity in HTLV-1 infected cells” (Bioorg Med Chem, 2023)",
  "key": {"[1]": {"test_system": "MT2", "experiment": "Suppression of GAG protein cleavage in human MT-2 cells infected with HTLV-1 assessed as increase in intracellular Pr53 protein expression at 50 uM incubated for 3 days by immunoblot analysis", "assay_type": "cell-based", "settings": "time 3.0 day"}, "[2]": {"test_system": "MT2", "experiment": "Cytotoxicity against human MT2 cells infected with HTLV-1 assessed as reduction in cell viability at 50 uM incubated for 3 days by MTT assay", "assay_type": "functional, cell-based", "settings": "time 3.0 day"}, "[3]": {"test_system": "MT2", "experiment": "Suppression of GAG protein cleavage in human MT-2 cells infected with HTLV-1 assessed as reduction in p19 protein expression in supernatant at 50 uM incubated for 3 days by immunoblot analysis", "assay_type": "cell-based", "settings": "time 3.0 day"}, "[4]": {"test_system": "Jurkat", "experiment": "Cytotoxicity against human Jurkat cells assessed as reduction in cell viability at 50 uM incubated for 3 days by MTT assay", "assay_type": "functional, cell-based", "settings": "time 3.0 day"}, "[5]": {"test_system": "MT2", "experiment": "Suppression of GAG protein cleavage in human MT-2 cells infected with HTLV-1 assessed as reduction in intracellular p28 protein expression at 50 uM incubated for 3 days by immunoblot analysis", "assay_type": "cell-based", "settings": "time 3.0 day"}, "[6]": {"test_system": "Jurkat", "experiment": "Cytotoxicity against human Jurkat cells assessed as reduction in cell viability at 100 uM incubated for 3 days by MTT assay", "assay_type": "functional, cell-based", "settings": "time 3.0 day"}, "[7]": {"test_system": "MT2", "experiment": "Cytotoxicity against human MT2 cells infected with HTLV-1 assessed as reduction in cell viability at 100 uM incubated for 3 days by MTT assay", "assay_type": "functional, cell-based", "settings": "time 3.0 day"}, "[8]": {"test_system": "MT2", "experiment": "Induction of GAG aggregation in top cross section of human MT-2 cells infected with HTLV-1 assessed as ratio of cells with aggregated GAG at 50 uM incubated for 2 hrs by immunostaining based confocal microscopic analysis (reference value: 4.3%)", "assay_type": "cell-based"}, "[9]": {"test_system": "HeLa", "experiment": "Upregulation of membrane localized GAG protein expression in human HeLa cells transfected with GAG-FLAG expression vector assessed as effect on E-cadherin protein expression at 50 uM by chemiluminescence based immunoblotting analysis", "assay_type": "functional, cell-based"}, "[10]": {"test_system": "MT2", "experiment": "Induction of GAG aggregation in middle cross section of human MT-2 cells infected with HTLV-1 assessed as ratio of cells with aggregated GAG at 50 uM incubated for 2 hrs by immunostaining based confocal microscopic analysis (reference value: 44.1%)", "assay_type": "cell-based"}, "[11]": {"test_system": "HeLa", "experiment": "Induction of GAG aggregation in human HeLa cells transfected with Gag-FLAG expression vector assessed as increase in number of bright GAG dots at 50 uM incubated for 2 hrs by immunostaining based confocal microscopic analysis", "assay_type": "cell-based"}, "[12]": {"test_system": "HeLa", "experiment": "Induction of GAG aggregation in human HeLa cells transfected with Gag-Venus expression vector assessed as increase in number of bright GAG dots at 50 uM incubated for 2 hrs by immunostaining based confocal microscopic analysis", "assay_type": "cell-based"}, "[13]": {"test_system": "MT2", "experiment": "Preferential cytotoxicity against human MT2 cells infected with HTLV-1 assessed as reduction in cell viability at 10 to 25 uM incubated for 3 days by MTT assay", "assay_type": "functional, cell-based", "settings": "dose 10-25 µM, time 3.0 day"}},
  "note": "The source made the active and inactive calls. The rule behind the calls is not given here.",
  "data": [
    {"smiles": "CC1(C)CC[C@]2(C(=O)O)CC[C@]3(C)C(=CC[C@@H]4[C@@]5(C)CC[C@H](O)[C@@](C)(CO)[C@@H]5CC[C@]43C)[C@@H]2C1", "values": [
      {"measurement": "Activity", "setting": "[1]", "result": "inactive"},
      {"measurement": "Activity", "setting": "[2]", "result": "Active"},
      {"measurement": "Activity", "setting": "[3]", "result": "inactive"},
      {"measurement": "Activity", "setting": "[4]", "result": "Active"},
      {"measurement": "Activity", "setting": "[5]", "result": "inactive"}
    ]},
    {"smiles": "CC1(C)CC[C@]2(C(=O)O[C@@H]3O[C@H](CO[C@@H]4O[C@H](CO)[C@@H](O)[C@H](O)[C@H]4O)[C@@H](O)[C@H](O)[C@H]3O)CC[C@]3(C)C(=CC[C@@H]4[C@@]5(C)CC[C@H](O[C@@H]6OC[C@H](O)[C@H](O)[C@H]6O)[C@@](C)(CO)[C@@H]5CC[C@]43C)[C@@H]2C1", "values": [
      {"measurement": "Activity", "setting": "[6]", "result": "inactive"},
      {"measurement": "Activity", "setting": "[7]", "result": "inactive"}
    ]},
    {"smiles": "CC1(C)CC[C@]2(C(=O)O[C@@H]3O[C@H](CO[C@@H]4O[C@H](CO)[C@@H](O)[C@H](O)[C@H]4O)[C@@H](O)[C@H](O)[C@H]3O)CC[C@]3(C)C(=CC[C@@H]4[C@@]5(C)CC[C@H](O[C@@H]6OC[C@H](O)[C@H](O)[C@H]6O[C@@H]6OC[C@@H](O)[C@H](O)[C@H]6O)[C@@](C)(CO)[C@@H]5CC[C@]43C)[C@@H]2C1", "values": [
      {"measurement": "Activity", "setting": "[6]", "result": "inactive"},
      {"measurement": "Activity", "setting": "[7]", "result": "inactive"}
    ]},
    {"smiles": "CC1(C)CC[C@]2(C(=O)O)CC[C@]3(C)C(=CC[C@@H]4[C@@]5(C)CC[C@H](O[C@@H]6OC[C@H](O)[C@H](O)[C@H]6O[C@@H]6O[C@H](CO)[C@@H](O)[C@H](O)[C@H]6O)[C@@](C)(CO)[C@@H]5CC[C@]43C)[C@@H]2C1", "values": [
      {"measurement": "Ratio", "setting": "[8]", "result": 7.3, "unit": "%"},
      {"measurement": "Activity", "setting": "[9]", "result": "inactive"},
      {"measurement": "Activity", "setting": "[1]", "result": "inactive"},
      {"measurement": "Activity", "setting": "[2]", "result": "Active"},
      {"measurement": "Activity", "setting": "[3]", "result": "Active"},
      {"measurement": "Activity", "setting": "[6]", "result": "Active"},
      {"measurement": "Activity", "setting": "[7]", "result": "Active"},
      {"measurement": "Ratio", "setting": "[10]", "result": 41.3, "unit": "%"},
      {"measurement": "Activity", "setting": "[11]", "result": "Active"},
      {"measurement": "Activity", "setting": "[12]", "result": "Active"},
      {"measurement": "Activity", "setting": "[4]", "result": "inactive"},
      {"measurement": "Activity", "setting": "[5]", "result": "Active"}
    ]},
    {"smiles": "CC1(C)CC[C@]2(C(=O)O)CC[C@]3(C)C(=CC[C@@H]4[C@@]5(C)CC[C@H](O[C@@H]6OC[C@H](O)[C@H](O)[C@H]6O[C@@H]6OC[C@@H](O)[C@H](O)[C@H]6O)[C@@](C)(CO)[C@@H]5CC[C@]43C)[C@@H]2C1", "values": [
      {"measurement": "Activity", "setting": "[2]", "result": "Active"},
      {"measurement": "Activity", "setting": "[6]", "result": "Active"},
      {"measurement": "Activity", "setting": "[7]", "result": "Active"},
      {"measurement": "Activity", "setting": "[13]", "result": "inactive"},
      {"measurement": "Activity", "setting": "[4]", "result": "Active"}
    ]},
    {"smiles": "CC1(C)CC[C@]2(C(=O)O)CC[C@]3(C)C(=CC[C@@H]4[C@@]5(C)CC[C@H](O[C@@H]6OC[C@H](O)[C@H](O)[C@H]6O)[C@@](C)(CO)[C@@H]5CC[C@]43C)[C@@H]2C1", "values": [
      {"measurement": "Activity", "setting": "[2]", "result": "Active"},
      {"measurement": "Activity", "setting": "[6]", "result": "Active"},
      {"measurement": "Activity", "setting": "[7]", "result": "Active"},
      {"measurement": "Activity", "setting": "[13]", "result": "inactive"},
      {"measurement": "Activity", "setting": "[4]", "result": "Active"}
    ]},
    {"smiles": "C[C@@H]1O[C@@H](O[C@H]2[C@H](O[C@H]3CC[C@@]4(C)[C@@H](CC[C@]5(C)[C@@H]4CC=C4[C@@H]6CC(C)(C)CC[C@]6(C(=O)O[C@@H]6O[C@H](CO[C@@H]7O[C@H](CO)[C@@H](O[C@@H]8O[C@@H](C)[C@H](O)[C@@H](O)[C@H]8O)[C@H](O)[C@H]7O)[C@@H](O)[C@H](O)[C@H]6O)CC[C@]45C)[C@]3(C)CO)OC[C@H](O)[C@@H]2O)[C@H](O)[C@H](O)[C@H]1O", "values": [
      {"measurement": "Activity", "setting": "[6]", "result": "inactive"},
      {"measurement": "Activity", "setting": "[7]", "result": "inactive"}
    ]},
    {"smiles": "C[C@@H]1O[C@@H](O[C@H]2[C@H](O)[C@@H](O)[C@H](OC[C@H]3O[C@@H](OC(=O)[C@]45CCC(C)(C)C[C@H]4C4=CC[C@@H]6[C@@]7(C)CC[C@H](O[C@@H]8OC[C@H](O[C@@H]9O[C@@H](C)[C@H](O)[C@@H](O)[C@H]9O)[C@H](O)[C@H]8O[C@@H]8O[C@H](CO)[C@@H](O)[C@H](O)[C@H]8O)[C@@](C)(CO)[C@@H]7CC[C@@]6(C)[C@]4(C)CC5)[C@H](O)[C@@H](O)[C@@H]3O)O[C@@H]2CO)[C@H](O)[C@H](O)[C@H]1O", "values": [
      {"measurement": "Activity", "setting": "[6]", "result": "inactive"},
      {"measurement": "Activity", "setting": "[7]", "result": "inactive"}
    ]}
  ]
}
